Measured values reported in PubChem BioAssay (NCI).
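96-well plates; 48 h exposure; 5 concentrations. Endpoints by linear interpolation between flanking doses. Not reached: highest tested concentration assigned. The concentration for full growth arrest is given as TGI.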

Legend:
Test in all cases: NCI tumour cell line growth inhibition, 48 h
[1] = tested on: A549 NSCLC
[2] = tested on: NCI-H226 lung
[3] = tested on: SNB-19 CNS
[4] = tested on: OVCAR-4 ovarian
[5] = tested on: CAKI-1 renal
[6] = tested on: SF-539 CNS
[7] = tested on: T-47D breast
[8] = tested on: SK-MEL-28 melanoma
[9] = tested on: UACC-257 melanoma
[10] = tested on: NCI-H23 lung
[11] = tested on: MOLT-4 leukemia
[12] = tested on: HS 578T breast
[13] = tested on: SK-MEL-5 melanoma
[14] = tested on: EKVX NSCLC
[15] = tested on: 786-0 renal
[16] = tested on: UACC-62 melanoma
[17] = tested on: SW-620 colon
[18] = tested on: HCT-15 colon
[19] = tested on: MALME-3M melanoma
[20] = tested on: UO-31 renal
[21] = tested on: RPMI-8226 leukemia
[22] = tested on: SK-OV-3 ovarian
[23] = tested on: U251 CNS
[24] = tested on: TK-10 renal
[25] = tested on: COLO 205 colon
[26] = tested on: SN12C renal
[27] = tested on: HCT-116 colon
[28] = tested on: OVCAR-5 ovarian
[29] = tested on: MDA-MB-231 breast
[30] = tested on: NCI/ADR-RES ovarian
[31] = tested on: LOX IMVI melanoma
[32] = tested on: M14 melanoma
[33] = tested on: KM12 colon
[34] = tested on: K-562 leukemia
[35] = tested on: SF-295 CNS
[36] = tested on: CCRF-CEM leukemia
[37] = tested on: DU-145 prostate
[38] = tested on: ACHN renal
[39] = tested on: NCI-H460 lung
[40] = tested on: SR leukemia
[41] = tested on: HCC-2998 colon
[42] = tested on: MDA-MB-435
[43] = tested on: SNB-75 CNS
[44] = tested on: HOP-92 NSCLC
[45] = tested on: SK-MEL-2 melanoma
[46] = tested on: MDA-N
[47] = tested on: IGROV1 ovarian
[48] = tested on: HOP-62 NSCLC
[49] = tested on: SF-268 CNS
[50] = tested on: RXF 393 renal
[51] = tested on: BT-549 breast
[52] = tested on: PC-3 prostate
[53] = tested on: MCF7 breast
[54] = tested on: NCI-H522 lung
[55] = tested on: OVCAR-3 ovarian
[56] = tested on: HT29 colon
[57] = tested on: A498 renal
[58] = tested on: OVCAR-8 ovarian
[59] = tested on: HL-60(TB) leukemia

With `O=P1(Cc2ccccc2)c2ccccc2-c2ccccc21` the TGI [1] was over 94.6 µM, the TGI [2] was 31.2 µM and the TGI [3] was over 37.8 µM. It also gave a TGI [4] of 87.9 µM, a TGI [5] of 50.4 µM and a TGI [6] of 39.5 µM. The TGI [7] was 6 µM, the TGI [8] was 24.6 µM and the TGI [9] was 16 µM. It also gave a TGI [10] of 22.1 µM, a TGI [11] of 30.5 µM and a TGI [12] of over 72 µM. The TGI [13] was 4.18 µM, the TGI [14] was over 73.1 µM and the TGI [15] was over 100 µM. The TGI [16] was 13.7 µM, the TGI [17] was 35 µM and the TGI [18] was over 100 µM. The TGI [19] was 12.7 µM, the TGI [20] was 69.2 µM and the TGI [21] was 4.61 µM. The TGI [22] was over 100 µM, the TGI [23] was 70.5 µM and the TGI [24] was 36 µM. The TGI [25] was 17 µM, the TGI [26] was over 78.8 µM and the TGI [27] was 50.9 µM. The TGI [28] was 54.7 µM, the TGI [29] was over 79.4 µM and the TGI [30] was over 100 µM. The TGI [31] was 23.1 µM, the TGI [32] was 20.2 µM and the TGI [33] was 10.3 µM. The TGI [34] was over 100 µM, the TGI [35] was 40.5 µM and the TGI [36] was over 100 µM. For the same compound, the TGI [37] was over 100 µM, the TGI [38] was 52.1 µM and the TGI [39] was 48.3 µM. For the same compound, the TGI [40] was 26.9 µM, the TGI [41] was 16.7 µM and the TGI [42] was 12.3 µM. It also gave a TGI [43] of over 50.7 µM, a TGI [44] of 6.99 µM and a TGI [45] of 7.49 µM. For the same compound, the TGI [46] was 10.9 µM, the TGI [47] was 19.3 µM and the TGI [48] was over 52.6 µM. It also gave a TGI [49] of over 100 µM, a TGI [50] of 28.9 µM and a TGI [51] of 21.3 µM. It also gave a TGI [52] of over 100 µM, a TGI [53] of over 39.3 µM and a TGI [54] of 14.1 µM. It also gave a TGI [55] of over 55.4 µM, a TGI [56] of 27.1 µM and a TGI [57] of 38.1 µM. It also gave a TGI [58] of 36.7 µM.

In the case of `CCNC(=S)NNC(=O)CSc1nc2ccc(I)cc2c(=O)n1Cc1ccccc1`, the TGI [1] is reported as over 100 µM, the TGI [2] is reported as over 95.5 µM and the TGI [3] is reported as over 100 µM. For the same compound, the TGI [4] was over 95.5 µM, the TGI [5] was 1.65 µM and the TGI [6] was over 100 µM. For the same compound, the TGI [7] was over 100 µM, the TGI [8] was over 100 µM and the TGI [9] was over 87.1 µM. It also gave a TGI [10] of over 100 µM, a TGI [11] of over 100 µM and a TGI [12] of over 100 µM. It also gave a TGI [13] of over 100 µM, a TGI [14] of over 88 µM and a TGI [15] of over 100 µM. The TGI [16] was over 100 µM, the TGI [17] was over 100 µM and the TGI [18] was over 100 µM. For the same compound, the TGI [19] was over 67.8 µM, the TGI [20] was 0.136 µM and the TGI [21] was over 100 µM. The TGI [22] was over 100 µM, the TGI [23] was over 100 µM and the TGI [24] was over 100 µM. It also gave a TGI [25] of over 100 µM, a TGI [26] of over 100 µM and a TGI [27] of over 77.1 µM. It also gave a TGI [28] of over 100 µM, a TGI [29] of over 100 µM and a TGI [30] of over 100 µM. For the same compound, the TGI [31] was over 100 µM, the TGI [32] was over 100 µM and the TGI [33] was over 100 µM. It also gave a TGI [34] of over 100 µM, a TGI [35] of over 100 µM and a TGI [36] of over 100 µM. The TGI [37] was over 100 µM, the TGI [38] was over 24.4 µM and the TGI [39] was over 100 µM. The TGI [40] was over 100 µM, the TGI [41] was over 85.7 µM and the TGI [42] was over 100 µM. The TGI [43] was over 100 µM, the TGI [44] was 97.7 µM and the TGI [45] was over 94.9 µM. For the same compound, the TGI [46] was over 100 µM, the TGI [47] was over 100 µM and the TGI [48] was over 100 µM. The TGI [49] was over 100 µM, the TGI [50] was over 81 µM and the TGI [51] was over 100 µM. The TGI [52] was over 100 µM, the TGI [53] was over 100 µM and the TGI [59] was over 34.7 µM. For the same compound, the TGI [54] was over 100 µM, the TGI [55] was over 100 µM and the TGI [56] was over 100 µM. The TGI [57] was over 78.2 µM and the TGI [58] was over 70.4 µM.

`C/C(=N\NC(N)=S)c1sc(-n2nc(-c3ccccc3)cc2-c2ccccc2)nc1C` was tested, and the TGI [1] was over 100 µM, the TGI [2] was over 100 µM and the TGI [3] was over 100 µM. For the same compound, the TGI [4] was over 100 µM, the TGI [5] was over 100 µM and the TGI [6] was over 100 µM. It also gave a TGI [7] of over 100 µM, a TGI [8] of over 100 µM and a TGI [9] of over 100 µM. It also gave a TGI [10] of over 100 µM, a TGI [11] of over 100 µM and a TGI [12] of over 100 µM. The TGI [13] was over 100 µM, the TGI [14] was over 100 µM and the TGI [15] was over 100 µM. For the same compound, the TGI [16] was over 100 µM, the TGI [17] was over 100 µM and the TGI [18] was over 100 µM. For the same compound, the TGI [19] was over 100 µM, the TGI [20] was over 100 µM and the TGI [21] was 61.2 µM. For the same compound, the TGI [22] was over 100 µM, the TGI [23] was over 100 µM and the TGI [24] was over 100 µM. The TGI [25] was over 100 µM, the TGI [26] was over 100 µM and the TGI [27] was over 100 µM. It also gave a TGI [28] of over 100 µM, a TGI [29] of over 100 µM and a TGI [30] of over 100 µM. It also gave a TGI [31] of over 100 µM, a TGI [32] of over 100 µM and a TGI [33] of over 100 µM. For the same compound, the TGI [35] was over 100 µM, the TGI [36] was over 100 µM and the TGI [37] was over 100 µM. It also gave a TGI [38] of over 100 µM, a TGI [39] of over 100 µM and a TGI [40] of over 100 µM. For the same compound, the TGI [41] was over 100 µM, the TGI [42] was over 100 µM and the TGI [43] was over 100 µM. For the same compound, the TGI [44] was over 100 µM, the TGI [45] was over 100 µM and the TGI [46] was over 100 µM. For the same compound, the TGI [47] was over 100 µM, the TGI [48] was over 100 µM and the TGI [49] was over 100 µM. The TGI [50] was over 100 µM, the TGI [51] was over 100 µM and the TGI [52] was over 100 µM. For the same compound, the TGI [53] was over 100 µM, the TGI [59] was over 100 µM and the TGI [54] was over 100 µM. The TGI [55] was over 100 µM, the TGI [56] was over 100 µM and the TGI [57] was over 100 µM. The TGI [58] was over 100 µM.
